Test results: US8431580B2, “4-aminopyrimidine derivatives as histamine H4 receptor antagonists” (Palau Pharma, S.A., priority 2007, dated 2013)

How the values were obtained:
[1] = molecular target: T1, human histamine H4 receptor (Homo sapiens, UniProt Q9H3N8); assay: Competitive binding assay of [3H]-histamine to the human histamine H4 receptor; details: 10 nM [3H]-histamine, CHO membrane extract; for inhibition at 1 µM: at a concentration of 1 μM
T1 construct: purchased Euroscreen/Perkin-Elmer
Protocol: Competitive Binding Assay of [^3H]-histamine to the Human Histamine H4 Receptor
To perform the binding assay, membrane extracts prepared from a stable CHO recombinant cell line expressing the human histamine H4 receptor (Euroscreen/Perkin-Elmer) were used.
The compounds to be tested were incubated at the desired concentration in duplicate with 10 nM [^3H]-histamine and 15 μg membrane extract in a total volume of 250 μL of 50 mM Tris-HCl, pH 7.4, 1.25 mM EDTA for 60 minutes at 25° C. Non-specific binding was defined in the presence of 100 μM of unlabelled histamine. The reaction was stopped by filtration using a vacuum collector (Multiscreen Millipore) in 96-well plates (MultiScreen HTS Millipore) that had been previously soaked in 0.5% polyethylenimine for 2 hours at 0° C. The plates were subsequently washed with 50 mM Tris (pH 7.4), 1.25 mM EDTA at 0° C., and the filters were dried for 1 hour at 50-60° C., before adding the scintillation liquid in order to determine bound radioactivity by means of a betaplate scintillation counter.

human eosinophils = assay: Histamine-induced shape change assay (Gated Autofluorescence Forward Scatter assay, GAFS) in human eosinophils; type: cell-based; details: Eosinophil, stimulated with 300 nM histamine
Protocol: Histamine-induced Shape Change Assay (Gated Autofluorescence Forward Scatter Assay, GAFS) in Human Eosinophils
In this assay the shape change induced by histamine in human eosinophils is determined by flow cytometry, detected as an increase in the size of the cells (forward scatter, FSC).
Polymorphonuclear leucocytes (PMNL, fraction containing neutrophils and eosinophils) were prepared from whole blood of human healthy volunteers. Briefly, erythrocytes were separated by sedimentation in 1.2% Dextran (SIGMA), and the leucocyte-rich fraction (PMNL) was isolated from the top layer by centrifugation at 450 g for 20 min in the presence of Ficoll-Paque® (Biochrom). PMNLs were resuspended in PBS buffer at a concentration of 1.1×10^6 cells/ml/tube and were pretreated with different concentrations of test compounds (dissolved in PBS) for 30 min at 37° C. and then stimulated with 300 nM histamine (Fluka) for 5 min. Finally, paraformaldehyde (1% final concentration in PBS) was added to terminate the reaction and maintain cell shape. Cell shape change was analyzed by flow cytometry (FACS Calibur, BD Biosystems). Eosinophils in PMNL were gated based on their higher autofluorescence relative to that of neutrophils (fluorescence channel FL2). Cell shape change was monitored in forward scatter signals (FSC). Results are expressed as percentage inhibition of shape change induced by histamine for each concentration of test compound.

| inhibition at 10 µM [1] [%] | inhibition at 1 µM [1] [%] | SMILES | inhibition at 1 µM (human eosinophils) [%] |
| --- | --- | --- | --- |
| > 50 | – | CC(C)Cc1nc(N)cc(N2CC[C@@H](N)C2)n1 [Example 16, 6-((3R)-3-aminopyrrolidin-1-yl)-2-isobutylpyrimidin-4-amine] | – |
| > 50 | – | CNC1CN(c2cc(N)nc(COc3ccccc3)n2)C1 [Example 9, 6-(3-(methylamino)azetidin-1-yl)-2-(phenoxymethyl)pyrimidin-4-amine] | – |
| > 50 | – | CN[C@@H]1CCN(c2cc(N)nc(C3CCCC3)n2)C1 [Example 20, 2-Cyclopentyl-6-((3R)-3-(methylamino)pyrrolidin-1-yl)pyrimidin-4-amine] | > 50 |
| > 50 | – | CNC1CN(c2cc(N)nc(Cc3ccc(F)cc3)n2)C1 [Example 3, 2-(4-Fluorobenzyl)-6-(3-(methylamino)azetidin-1-yl)pyrimidin-4-amine] | > 50 |
| – | > 50 | CN[C@@H]1CCN(c2cc(N)nc(C(C)(C)C)n2)C1 [Example 11, 2-tert-Butyl-6-((3R)-3-(methylamino)pyrrolidin-1-yl)pyrimidin-4-amine] | > 50 |
| > 50 | – | CNC1CN(c2cc(N)nc(C(C)C)n2)C1 [Example 7, 2-Isopropyl-6-(3-(methylamino)azetidin-1-yl)pyrimidin-4-amine] | – |
| > 50 | – | CNC1(C)CN(c2cc(N)nc(CC(C)C)n2)C1 [Example 15, 2-Isobutyl-6-(3-methyl-3-(methylamino)azetidin-1-yl)pyrimidin-4-amine] | > 50 |
| > 50 | – | CN[C@@H]1CCN(c2cc(N)nc(CC(C)(C)C)n2)C1 [Example 22, 2-(2,2-Dimethylpropyl)-6-((3R)-3-(methylamino)pyrrolidin-1-yl)pyrimidin-4-amine] | > 50 |
| > 50 | – | CNC1CN(c2cc(N)nc(C3CCCC3)n2)C1 [Example 19, 2-Cyclopentyl-6-(3-(methylamino)azetidin-1-yl)pyrimidin-4-amine] | > 50 |
| – | > 50 | CN[C@@H]1CCN(c2cc(N)nc(C3CC3)n2)C1 [Example 10, 2-Cyclopropyl-6-((3R)-3-(methylamino)pyrrolidin-1-yl)pyrimidin-4-amine] | – |
| > 50 | – | CNC1CN(c2cc(N)nc(C3CCC3)n2)C1 [Example 17, 2-Cyclobutyl-6-(3-(methylamino)azetidin-1-yl)pyrimidin-4-amine] | > 50 |
| > 50 | – | CNC1CN(c2cc(N)nc(C3CC3)n2)C1 [Example 5, 2-Cyclopropyl-6-(3-(methylamino)azetidin-1-yl)pyrimidin-4-amine] | – |
| > 50 | – | CN[C@@H]1CCN(c2cc(N)nc(CCC3CCCC3)n2)C1 [Example 23, 2-(2-Cyclopentylethyl)-6-((3R)-3-(methylamino)pyrrolidin-1-yl)pyrimidin-4-amine] | – |
| > 50 | – | CNC1CN(c2cc(N)nc(CC(C)C)n2)C1 [Example 4, 2-Isobutyl-6-(3-(methylamino)azetidin-1-yl)pyrimidin-4-amine] | > 50 |
| – | > 50 | CN[C@@H]1CCN(c2cc(N)nc(C(C)C)n2)C1 [Example 12, 2-Isopropyl-6-((3R)-3-(methylamino)pyrrolidin-1-yl)pyrimidin-4-amine] | > 50 |
| > 50 | – | CNC1CN(c2cc(N)nc(C(C)(C)C)n2)C1 [Example 6, 2-tert-Butyl-6-(3-(methylamino)azetidin-1-yl)pyrimidin-4-amine] | – |
| > 50 | – | CNC1CN(c2cc(N)nc(CC(C)(C)C)n2)C1 [Example 21, 2-(2,2-Dimethylpropyl)-6-(3-(methylamino)azetidin-1-yl)pyrimidin-4-amine] | > 50 |
| > 50 | – | CC(C)Cc1nc(N)cc(N2CC(N)C2)n1 [Example 14, 6-(3-Aminoazetidin-1-yl)-2-isobutylpyrimidin-4-amine] | – |
| > 50 | – | CN[C@@H]1CCN(c2cc(N)nc(CC(C)C)n2)C1 [Example 1, 2-Isobutyl-6-((3R)-3-(methylamino)pyrrolidin-1-yl)pyrimidin-4-amine] | > 50 |
| > 50 | – | CN[C@@H]1CCN(c2cc(N)nc(C3CCC3)n2)C1 [Example 18, 2-Cyclobutyl-6-((3R)-3-(methylamino)pyrrolidin-1-yl)pyrimidin-4-amine] | > 50 |
| > 50 | – | CN[C@@H]1CCN(c2cc(N)nc(CC3CCCCC3)n2)C1 [Example 2, 2-Cyclohexylmethyl-6-((3R)-3-(methylamino)pyrrolidin-1-yl)pyrimidin-4-amine] | > 50 |
| > 50 | – | CN[C@@H]1CCN(c2cc(N)nc(COc3ccccc3)n2)C1 [Example 13, 6-((3R)-3-(methylamino)pyrrolidin-1-yl)-2-(phenoxymethyl)pyrimidin-4-amine] | – |
